Like-named read-outs stand apart in the source and are kept apart here.

This assay concerns the target T1, Full-length glucokinase (beta cell isoform) (Homo sapiens, UniProt P35557).
T1 construct: Full-length glucokinase (beta cell isoform) was His-tagged at N-terminus; His tag (N); made in house; host or cells: E. coli BL21(DE3), pBCGK vector
T1 sequence (P35557 1-465): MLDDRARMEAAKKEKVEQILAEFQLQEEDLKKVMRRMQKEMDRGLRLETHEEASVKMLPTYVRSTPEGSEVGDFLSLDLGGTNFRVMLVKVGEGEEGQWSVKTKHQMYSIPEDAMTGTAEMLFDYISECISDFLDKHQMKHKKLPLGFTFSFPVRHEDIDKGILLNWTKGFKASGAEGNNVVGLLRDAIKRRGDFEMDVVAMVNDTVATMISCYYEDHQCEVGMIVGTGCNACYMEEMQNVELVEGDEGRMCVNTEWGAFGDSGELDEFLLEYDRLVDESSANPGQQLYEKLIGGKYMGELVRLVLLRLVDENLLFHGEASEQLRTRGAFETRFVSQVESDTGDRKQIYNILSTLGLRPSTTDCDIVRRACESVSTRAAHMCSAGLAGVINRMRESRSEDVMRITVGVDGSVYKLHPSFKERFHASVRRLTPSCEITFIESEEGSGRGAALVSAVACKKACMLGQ
The assay is described as follows: Glucokinase activation assay (PK/LDH-coupled, NADH depletion at 340 nm). It counts as biochemical. As to conditions: for Emax: % max activation = (Va/Vo−1)×100 from fit, pH 7.1, read-out: Maximum Activation (%). Here is the method: Full-length glucokinase (beta cell isoform) was His-tagged at N-terminus and purified by a Ni column followed by size exclusion chromatography. A 320 mL column was packed in house using Superdex75 (Amersham Pharmacia, Carlsbad, Calif.) preparation grade resin. Glucose was obtained from Calbiochem (San Diego, Calif.) and other reagents were purchased from Sigma-Aldrich (St. Louis, Mo.).
All assays were performed in a Corning 384-well plate using Spectramax PLUS spectrophotometer (Molecular Devices, Sunnyvale, Calif.) at room temperature. The final assay volume was 40 ∥L. The buffer conditions used in this assay were as follows: 50 mM HEPES, 5 mM glucose, 2.5 mM ATP, 3.5 mM MgCl2, 0.7 mM NADH, 2 mM dithiothreitol, 1 unit/mL pyruvate kinase/lactate dehydrogenase (PK/LDH), 0.2 mM phosphoenolpyruvate, and 25 mM KCl. The buffer pH was 7.1. The test compound in dimethylsulfoxide solution was added to the buffer and mixed by a plate shaker for 7.5 minutes. The final concentration of dimethylsulfoxide introduced into the assay was 0.25%.
Glucokinase was added to the buffer mixture to initiate the reaction in the presence and absence of compound. The reaction was monitored by absorbance at 340 nm due to the depletion of NADH. The initial reaction velocity was measured by the slope of a linear time course of 0-300 seconds. The percentage of maximum activation was calculated by the following equation: % Maximum Activation=(Va/Vo−1)×100; wherein each of Va and Vo is defined as the initial reaction velocity in the presence and absence of the tested compound, respectively.
The glucokinase activities were measured as a function of compound concentrations.

Setting [1] is: 5 mM glucose, 2.5 mM ATP, pH 7.1, room temperature, single value or range where N>1, read-out: EC50.
[2] abbreviates: 5 mM glucose, single value or range where N>1.

Broadly, the EC50 is the concentration giving half of the maximal effect. As for `Cc1ccc(NC(=O)[C@H](CC2CCCO2)n2cnc(C(F)(F)F)c2)nc1` (mixture of isomers) [Example 82, (2S)—N-(5-methylpyridin-2-yl)-3-(tetrahydrofuran-2-yl)-2-(4-(trifluoromethyl)-1H-imidazol-1-yl)propanamide], under setting [1], the concentration giving a half-maximal response (EC50) came to 5 µM. Also, under setting [2], the Emax turned out to be 115%.
Take `Cc1ccc(NC(=O)[C@H](CC2CCCC2)n2cnc(C(F)(F)F)n2)nc1` [Example 85, (S)-3-cyclopentyl-N-(5-methylpyridin-2-yl)-2-(3-(trifluoromethyl)-1H-1,2,4-triazol-1-yl)propanamide]: the EC50 under setting [1] fell in the range of 0.8 to 1 µM. In addition, under setting [2], the Emax was 125 to 147%.
As for `CS(=O)(=O)c1cnn([C@@H](CC2CCCC2)C(=O)Nc2ccc(C(F)(F)F)cn2)c1` [Example 10, (S)-3-cyclopentyl-2-(4-(methylsulfonyl)-1H-pyrazol-1-yl)-N-(5-(trifluoromethyl)pyridin-2-yl)propanamide], under setting [1], the 50% effective concentration (EC50) was found to be 4.8 µM. The Emax under setting [2] turned out to be 56%.
As for `CS(=O)(=O)c1ccc(NC(=O)[C@H](CC2CCCC2)n2cnc(C(F)(F)F)c2)nc1` [Example 51, (S)-3-cyclopentyl-N-[5-(methylsulfonyl)pyridin-2-yl]-2-[4-(trifluoromethyl)-1H-imidazol-1-yl]propanamide], the concentration giving a half-maximal response (EC50) under setting [1] fell in the range of 6.7 to 8.8 µM. Also, the Emax under setting [2] lay in the range of 90 to 113%.
As to `Cc1ccc(NC(=O)[C@H](CC2CCCC2)n2cc(C)c(C(F)(F)F)n2)nc1` [Example 93, (S)-3-cyclopentyl-2-(4-methyl-3-(trifluoromethyl)-1H-pyrazol-1-yl)-N-(5-methylpyridin-2-yl)propanamide], the concentration for a half-maximal effect (EC50) under setting [1] is 4 to 5.4 µM. Further, the Emax under setting [2] was 92 to 95%.
Take `Cc1ccc(NC(=O)[C@H](CC2CCCC2)n2cnc(S(=O)(=O)C(C)C)c2)nc1` [Example 28, (S)-3-cyclopentyl-2-(4-(isopropylsulfonyl)-1H-imidazol-1-yl)-N-(5-methylpyridin-2-yl)propanamide]: the concentration giving a half-maximal response (EC50) under setting [1] was over 100 µM.
Take `CCOP(=O)(Cc1ccc(NC(=O)[C@H](CC2CCCC2)n2cnc(C(F)(F)F)c2)nc1)OCC` [Example 58, (S)-diethyl(6-(3-cyclopentyl-2-(4-(trifluoromethyl)-1H-imidazol-1-yl)propanamido)pyridin-3-yl)methylphosphonate]: the EC50 is 3.4 µM. The Emax under setting [2] was 129%.
Turning to `Cn1ccc(NC(=O)[C@H](CC2CCCC2)n2ccc(C(F)(F)F)n2)n1` [Example 68, (S)-3-cyclopentyl-N-(1-methyl-1H-pyrazol-3-yl)-2-(3-(trifluoromethyl)-1H-pyrazol-1-yl)propanamide], the EC50 under setting [1] is over 100 µM.
With `Cc1cnc(NC(=O)[C@H](CC2CCCC2)n2cc(S(C)(=O)=O)cn2)cn1` [Example 14, (S)-3-cyclopentyl-N-(5-methylpyrazin-2-yl)-2-(4-(methylsulfonyl)-1H-pyrazol-1-yl)propanamide], the EC50 under setting [1] stood at 11 µM. Moreover, the Emax under setting [2] is 122%.
As for `Cc1ccc(NC(=O)[C@H](CC2CCCC2)n2cc(C(F)(F)F)c(C)n2)nc1` [Example 96, (S)-3-cyclopentyl-2-(3-methyl-4-(trifluoromethyl)-1H-pyrazol-1-yl)-N-(5-methylpyridin-2-yl)propanamide], under setting [1], the half-maximal effective concentration (EC50) stood at 2.8 µM. Further, the Emax under setting [2] stood at 123%.
With `CC(C)S(=O)(=O)c1cnn([C@@H](CC2CCCC2)C(=O)Nc2ccc3ccccc3n2)c1` [Example 17, (S)-3-cyclopentyl-2-(4-(isopropylsulfonyl)-1H-pyrazol-1-yl)-N-(quinolin-2-yl)propanamide], the EC50 under setting [1] was 8.2 µM. Besides, the Emax under setting [2] amounted to 23%.
As to `CCn1ccc(NC(=O)[C@H](CC2CCCC2)n2cc(S(=O)(=O)C(C)C)cn2)n1` [Example 18, (S)-3-cyclopentyl-N-(1-ethyl-1H-pyrazol-3-yl)-2-(4-(isopropylsulfonyl)-1H-pyrazol-1-yl)propanamide], the concentration for a half-maximal effect (EC50) under setting [1] is 15.7 µM. Also, under setting [2], the Emax is 24%.
For the compound `Cc1cn([C@@H](CC2CCCC2)C(=O)Nc2ccc(C(=O)O)cn2)nc1C(F)(F)F` [Example 95, (S)-6-(3-cyclopentyl-2-(4-methyl-3-(trifluoromethyl)-1H-pyrazol-1-yl)propanamido)nicotinic acid], the EC50 under setting [1] stood at 8 µM. The Emax under setting [2] was found to be 128%.
Consider `CCn1ncc(NC(=O)[C@H](CC2CCCC2)n2cnc(C(F)(F)F)c2)n1` [Example 49, (S)-3-cyclopentyl-N-(2-ethyl-2H-[1,2,3]triazol-4-yl)-2-(4-trifluoromethyl-1H-imidazol-1-yl)propanamide], for which, under setting [1], the concentration giving a half-maximal response (EC50) amounted to 2.2 µM. Further, the Emax under setting [2] came out at 168%.
As for `CS(=O)(=O)c1cnn([C@@H](CC2CCCC2)C(=O)Nc2ccncn2)c1` [Example 13, (S)-3-cyclopentyl-2-(4-(methylsulfonyl)-1H-pyrazol-1-yl)-N-(pyrimidin-4-yl)propanamide], the EC50 under setting [1] is 32 µM. For the same compound, the Emax under setting [2] amounted to 100%.
With `CC(C)S(=O)(=O)c1cn([C@@H](CC2CCCC2)C(=O)Nc2ccn(C)n2)cn1` [Example 29, (S)-3-cyclopentyl-2-(4-(isopropylsulfonyl)-1H-imidazol-1-yl)-N-(1-methyl-1H-pyrazol-3-yl)propanamide], the concentration giving a half-maximal response (EC50) under setting [1] amounted to 17 µM. Also, the Emax under setting [2] is 112%.
For the compound `O=C(O)Cn1ccc(NC(=O)[C@H](CC2CCCC2)n2cnc(C(F)(F)F)n2)n1` [Example 89, (S)-2-(3-(3-cyclopentyl-2-(3-(trifluoromethyl)-1H-1,2,4-triazol-1-yl)propanamido)-1H-pyrazol-1-yl)acetic acid], under setting [1], the EC50 was found to be 45 µM. Also, the Emax under setting [2] is 183%.
Take `CC(C)(C(=O)O)c1ccc(NC(=O)[C@H](CC2CCCC2)n2cnc(C(F)(F)F)c2)nc1` [Example 65, (S)-2-(6-(3-cyclopentyl-2-(4-(trifluoromethyl)-1H-imidazol-1-yl)propanamido)pyridin-3-yl)-2-methylpropanoic acid]: under setting [1], the EC50 turned out to be 17 µM. The Emax under setting [2] amounted to 84%.
With `NC(=O)c1ccc(NC(=O)[C@H](CC2CCCC2)n2cnc(C(F)(F)F)c2)nc1` [Example 52, 6-[(S)-3-cyclopentyl-2-(4-trifluoromethyl-1H-imidazol-1-yl)-propionylamino]-nicotinamide], under setting [1], the 50% effective concentration (EC50) turned out to be 0.4 µM. Moreover, the Emax under setting [2] stood at 110%.
Consider `Cc1cnc(NC(=O)[C@H](CC2CCCC2)n2ccc(C(F)(F)F)n2)cn1` [Example 70, (S)-3-cyclopentyl-N-(5-methylpyrazin-2-yl)-2-(3-(trifluoromethyl)-1H-pyrazol-1-yl)propanamide], for which, under setting [1], the EC50 came out at 24 µM. Besides, the Emax under setting [2] came to 124%.
Take `CC(C)S(=O)(=O)c1cnn([C@@H](CC2CCCC2)C(=O)Nc2ccncn2)c1` [Example 4, (S)-3-cyclopentyl-2-(4-(isopropylsulfonyl)-1H-pyrazol-1-yl)-N-(pyrimidin-4-yl)propanamide]: under setting [1], the EC50 lay in the range of 0.9 to 2.2 µM. For the same compound, the Emax under setting [2] lay in the range of 57 to 90%.
As to `Cc1cnc(NC(=O)[C@H](CC2CCCC2)n2cnc(C(F)(F)F)c2)cn1` [Example 45, (S)-3-cyclopentyl-N-(5-methylpyrazin-2-yl)-2-(4-(trifluoromethyl)-1H-imidazol-1-yl)propanamide], the concentration giving a half-maximal response (EC50) under setting [1] was determined as 2 µM. Also, the Emax under setting [2] turned out to be 161%.
